Laboratory results taken from US11607458B2 (Georgia State University Research Foundation, Inc, priority 2017, dated 2023).
Where “and” joins values, the source holds several entries; their conditions need not be identical. Identical values can stand only once. Like-named read-outs stand apart in the source and are kept apart here.

Key:
[1] = Stability of tetrazine prodrugs in PBS with or without 1 mM cysteine (HPLC); format: physicochemical; details: 25 μM, n = 4; for Prodrugs remaining, 24 h in PBS with 1 mM Cys at 37° C. / Prodrugs remaining, 24 h in PBS with 1 mM Cys at r.t: PBS (5% DMSO) with 1 mM Cys; for Prodrugs remaining, 24 h in PBS at 37° C. / Prodrugs remaining, 24 h in PBS at r.t: PBS (5% DMSO)
Experimental: Due to the electron deficient nature of the tetrazine moiety, the stability of the tetrazine-linked prodrugs in the presence of high concentrations of thiol species was studied. In general, a solution of tetrazine prodrug (500 μL, 500 μM) was added to either 9.5 mL of PBS or 1 mM cysteine solution in PBS in a 20-mL vial. The solution was stirred at r.t. or 37° C. for 24 h. The reaction solution was injected into HPLC, and analyzed with Method A (described above) for prodrugs 1b and 1c, and Method B for prodrug 1d.
Prodrug (1d or 1b, 25 μM in PBS alone or in the presence of 1 mM cysteine (Cys) in PBS) was incubated at r.t or 37° C. for 24 h. Then HPLC was used to monitor the concentration of the remaining prodrug (Table 5). No stability problems were observed.

HeLa cells = assay: Cytotoxicity studies in HeLa cells (MTT assay / crystal violet assay); format: cell-based
Experimental: Cell cultures. HeLa cells (ATCC) were used in the following cell culture studies. HeLa cells were maintained in DMEM (Dulbecco's Modified Eagle's Medium) supplemented with 10% fetal bovine serum (MidSci; S01520HI), and 1% penicillin-streptomycin (Sigma-Aldrich; P4333) at 37° C. with 5% CO2.
Cytotoxicity studies. Test compound was dissolved in DMSO to afford a stock solution. The final concentration of DMSO in the cell culture was 1% (v/v) in PBS. HeLa cells were seeded in 96-well plates one day before the experiment. Different concentrations of prodrug was added into the cell culture. The cells were then incubated for 48 h at 37° C. with 5% CO2. The cell viability was tested by the MTT assay described in Levitz, S. M., et al. J Infect Dis 1985, 152, 938-945. Specifically, after 48 h of incubation, 5 mg/mL MTT (3-(4,5-dimethylthiazol-2-yl)-2,5-diphenyltetrazolium bromide) was added into the cell culture. After incubation for 4 h, the supernatant was removed and 100 μL DMSO was added into the wells containing the cells. After shaking gently for 3 min, absorbance at 605 nm was read by a plate reader.
Cytotoxicity studies using crystal violet assay. The test compound was dissolved in DMSO to afford a stock solution. The final concentration of DMSO in cell culture was 1% (v/v) in PBS. HeLa cells were seeded in 96-well plates one day before the experiment. Different concentrations of the test compound were added into the cell culture. The cells were then incubated for 48 h at 37° C. with 5% CO2. Cell viability was tested by the crystal violet assay. Specifically, after 48 h of incubation, the cells were fixed in 100% methanol for 10 min and stained for 20 min with a 1% crystal violet solution in 50% methanol, followed by 5 repeated washings with PBS. 50 μL of DMSO was added to each well. After 20 min of incubation, the plates were analyzed in a microplate reader at 595 nm.
Similar results were observed when the alkyne concentration was decreased to 10 μM. For example, the IC50 of TPP-Dox prodrug 1c was about 2 μM in the presence of 2b, while the IC50 for Dox prodrug 1b was well over 10 μM in the presence of 10 μM of the alkyne trigger 2a (FIG. 3a). As controls, both the IC50 values of 1c and 2b alone were higher than 40 μM, and the treatment of 20 μM of alkyne 2a or 2b alone had no effect on cell viability. […] Without such an enrichment, the reaction is expected to be slow, resulting in a lower level of active Dox being released. […] Thus, mitochondrial enrichment leads to triggered release of the drug. The same concept is applicable to the delivery of drugs through other targeting approaches such as receptor-mediated drug delivery.

[2] = Determination of the lactonization rate constants (k1) by HPLC; format: physicochemical; details: for Lactonization rate constant k1: r.t., PBS (15% DMSO)
Experimental: General procedure for the determination of the lactonization rate constants. To a 9 mL PBS in a 20-mL vial was added a solution of the respective tetrazine prodrug (500 μL, 500 μM). Then 1 mL of the respective alkyne (50 mM in DMSO) was added to afford a final concentration of 5 mM in PBS (15% DMSO). The reaction was stirred at r.t. Every 30 min about 500 μL the reaction mixture was taken out and 20 μL of them was injected into the HPLC by an autosampler; the rest of them was poured back to the reaction mixture. The reaction rate constant, k1, was determined by fitting the area in HPLC chromatogram of the intermediate versus time using eq. 3: Y=A exp(−k1t) eq. 3 where Y is the intermediate areas, and t is the time.

[3] = alkyne 2c, no intermediates observed by HPLC

| SMILES | Prodrugs remaining, 24 h in PBS with 1 mM Cys at 37° C. [1] [%] | Prodrugs remaining, 24 h in PBS with 1 mM Cys at r.t [1] [%] | Prodrugs remaining, 24 h in PBS at 37° C. [1] [%] | Prodrugs remaining, 24 h in PBS at r.t [1] [%] | Lactonization rate constant k1 ([2]; alkyne 2b 5 mM, Exp 2) [h⁻¹] | Lactonization rate constant k1 ([2]; alkyne 2b 5 mM, Expt 1) [h⁻¹] | Lactonization rate constant k1 ([2]; alkyne 2b 5 mM, Expt. 3) [h⁻¹] | k1 at r.t (lactonization) ([2]; alkyne 2b, n = 3) [h⁻¹] | k1 at r.t (lactonization) [2, 3] | further results |
| --- | --- | --- | --- | --- | --- | --- | --- | --- | --- | --- |
| C#CCOc1ccc(-c2nnc(C(=O)NC3CC(OC4CC(O)(C(=O)CO)Cc5c(O)c6c(c(O)c54)C(=O)c4c(OC)cccc4C6=O)OC(C)C3O)nn2)cc1 (stereo not shown) [1b] | 76 ± 5 | 80 ± 5 | 78 ± 5 | 85 ± 5 | 0.179 | 0.223 | 0.196 | 0.20 ± 0.04 | too fast to detect | IC50 (HeLa cells; compound alone, 48 h, read-out: IC50 in Hela cell line): > 100000 nM; IC50 (HeLa cells; in the presence of 10 μM alkyne trigger 2a, 48 hours (FIG. 3a), read-out: IC50 in HeLa cells): > 10000 nM; IC50 (HeLa cells; in the presence of 20 μM alkyne 2a, 48 hours (FIG. 3b), read-out: IC50 in HeLa cells): ~10000 nM; IC50 (HeLa cells; in the presence of 50 μM alkyne 2b, 48 h, listed as Dox-prodrug 1b, read-out: IC50 in Hela cell line): ~2000 nM; IC50 (HeLa cells; in the presence of 50 μM alkyne 2b, 48 h, listed as Dox-prodrug lb, read-out: IC50 in Hela cell line): 2300 ± 400 nM; IC50 (HeLa cells; in the presence of 50 μM alkyne 2d, 48 h, listed as Dox-prodrug 1b, read-out: IC50 in Hela cell line): ~1500 nM and 1500 nM; IC50 (HeLa cells; in the presence of 100 μM alkyne 2d, 48 h, read-out: IC50 in Hela cell line): 1300 ± 200 nM; Lactonization rate constant k1 ([2]; alkyne 2a 5 mM, Exp 2): 0.206 h⁻¹; Lactonization rate constant k1 ([2]; alkyne 2a 5 mM, Expt 1): 0.185 h⁻¹; Lactonization rate constant k1 ([2]; alkyne 2a 5 mM, Expt. 3): 0.229 h⁻¹; k1 at r.t (lactonization) ([2]; alkyne 2a, n = 3): 0.21 ± 0.04 h⁻¹ |
| COc1cccc2c1C(=O)c1c(O)c3c(c(O)c1C2=O)CC(O)(C(=O)CO)CC3OC1CC(NC(=O)c2nnc(-c3ccc(OCc4cn(CCCCCCCCC[P+](c5ccccc5)(c5ccccc5)c5ccccc5)nn4)cc3)nn2)C(O)C(C)O1 (stereo not shown) [1c] | – | – | – | – | 0.191 | 0.225 | 0.265 | 0.22 ± 0.05 | – | IC50 (HeLa cells; Homo sapiens, HeLa, 48 h, compound alone, 48 h, read-out: IC50 in Hela cell line): > 40000 nM; IC50 (HeLa cells; Homo sapiens, HeLa, 48 h, in the presence of 10 μM alkyne 2b, 48 hours (FIG. 3a), read-out: IC50 in HeLa cells): ~2000 nM; IC50 (HeLa cells; Homo sapiens, HeLa, 48 h, in the presence of 20 μM TPP-alkyne 2b, 48 hours (FIG. 3b), read-out: IC50 in HeLa cells): ~1500 nM |
| C#CCOc1ccc(-c2nnc(C(=O)NCCCOCCOCCOCCCNS(=O)(=O)c3cccc4c(N(C)C)cccc34)nn2)cc1 [1d] | 81 ± 5 | 88 ± 5 | 85 ± 5 | 91 ± 5 | 0.184 | 0.162 | 0.142 | 0.16 ± 0.04 | too fast to detect | Lactonization rate constant k1 ([2]; alkyne 2d 5 mM, Exp 2): 0.0291 h⁻¹; Lactonization rate constant k1 ([2]; alkyne 2d 5 mM, Expt 1): 0.0253 h⁻¹; Lactonization rate constant k1 ([2]; alkyne 2d 5 mM, Expt. 3): 0.0332 h⁻¹; k1 at r.t (lactonization) ([2]; alkyne 2d, n = 3): 0.029 ± 0.006 h⁻¹ |
